Experiment: xn = mol fraction of the nth substance listed
Conditions: 100 kPa, Liquid; for viscosity: Capillary tube (Ostwald / Ubbelohde) method

CCCCCCCCO [octan-1-ol] + CCO
Conditions	mass density, 283.15 K [kg/m3]	mass density, 293.15 K [kg/m3]	mass density, 298.15 K [kg/m3]	mass density, 303.15 K [kg/m3]	mass density, 313.15 K [kg/m3]	viscosity, 283.15 K [mPa·s]	viscosity, 293.15 K [mPa·s]	viscosity, 298.15 K [mPa·s]	viscosity, 303.15 K [mPa·s]	viscosity, 313.15 K [mPa·s]
x2 = 0	832.1	825.2	821.9	818.4	811.4	13.49	9.016	7.39	6.306	4.587
x2 = 0.1001	831.8	824.1	821.3	817.8	810.7	11.57	7.998	6.619	5.68	4.167
x2 = 0.2001	829.4	822.4	818.9	815.4	808.3	9.981	6.997	5.812	5.045	3.739
x2 = 0.3003	827.3	820.6	817	813.4	806.2	8.404	6.004	5.076	4.422	3.316
x2 = 0.3999	825.4	818.2	814.7	811.5	803.7	6.907	5.04	4.357	3.732	2.903
x2 = 0.5004	822.6	815.3	811.7	808.1	800.7	5.63	4.177	3.665	3.22	2.501
x2 = 0.6006	820.1	812.7	809	805.2	797.7	4.488	3.427	3.047	2.677	2.117
x2 = 0.7	816.8	809.3	805.4	801.7	793.9	3.543	2.711	2.445	2.178	1.771
x2 = 0.7999	811.7	803.9	800	796.1	788.1	2.714	2.146	1.958	1.712	1.4
x2 = 0.8998	–	–	–	–	–	2.003	1.593	1.474	1.328	1.112
x2 = 0.9001	805	796.8	792.7	788.6	780.4	–	–	–	–	–

CCCCCO [pentan-1-ol] + CCO
Conditions	mass density, 283.15 K [kg/m3]	mass density, 293.15 K [kg/m3]	mass density, 298.15 K [kg/m3]	mass density, 303.15 K [kg/m3]	mass density, 313.15 K [kg/m3]	viscosity, 283.15 K [mPa·s]	viscosity, 293.15 K [mPa·s]	viscosity, 298.15 K [mPa·s]	viscosity, 303.15 K [mPa·s]	viscosity, 313.15 K [mPa·s]
x2 = 0	822.1	814.7	811.2	807.5	800	5.417	3.974	3.441	2.99	2.263
x2 = 0.1	820.6	813.2	810	805.8	798.3	4.879	3.595	3.154	2.741	2.1
x2 = 0.2	819.4	812	808.3	804.6	797	4.379	3.263	2.874	2.506	1.931
x2 = 0.2998	817.8	810.3	806.6	802.8	795.1	3.892	2.935	2.587	2.27	1.771
x2 = 0.3999	815.4	807.8	804.2	800.2	792.4	3.404	2.619	2.324	2.05	1.61
x2 = 0.4997	813.3	805.6	801.8	797.9	790	2.966	2.328	2.07	1.828	1.452
x2 = 0.6	811	803.2	799.6	795.4	787.4	2.564	2.04	1.833	1.628	1.312
x2 = 0.7	808.4	800.5	796.4	792.5	784.3	2.234	1.796	1.631	1.453	1.179
x2 = 0.8	805.3	797.3	793.7	789.1	780.8	1.938	1.583	1.435	1.285	1.062
x2 = 0.8999	802	793.7	790.4	785.3	776.8	1.693	1.381	1.256	1.141	0.956
